Results published in publication PMC7934871 (JCI Insight, 2021).
Non-standard residues stand in square brackets, D forms with d. No end group written: not given here. pY = N[C@@H](Cc1ccc(OP(=O)(O)O)cc1)C(=O)O

Key:
[1] = test system: HCT116 cells; experiment: Cell proliferation assay (CellTiter-Glo); format: cell-based, human; conditions: HCT116, 10 μg/mL (approximately 1 μM) every day, day 7, CellTiter-Glo
Text: Figure 3 PS-acet.-STAT3 peptide inhibits STAT3 activity and downregulates the expression of STAT3 targets. (A) Downregulation of STAT3 activity and its downstream target proteins shown in human HCT116 colorectal cancer cells by Western blotting (data represent 1 of the 3 experiments, n = 3). PO-acet.-STAT3 and PS-STAT3-K685R peptides were used in parallel as controls. (B) STAT3 inhibition regulated the expression of proliferation and apoptotic genes, assessed by real-time quantitative PCR. Data present mean ± SD, n = 3 independent experiments, 1-way ANOVA; ***P < 0.005; **P < 0.01. […] For p53 promoter assay, data represent 3 replicates in 3 independent experiments (n = 9). For cell proliferation assay, data represent 3 independent experiments. SD is shown (n = 3). One-way ANOVA; ***P < 0.005; **P < 0.01.
HCT116 cells were seeded in a 96-well plate at a density of 6000/well. Starting the following day, cells were treated every day with 10 μg/mL (approximately 1 μM) PO- or PS-peptides. On day 7, cell proliferation was measured based on ATP production using bioluminescence detection kit for ATP measurement (CellTiter-Glo, Promega), according to manufacturer’s instruction.

[2] = test system: cancer cells; experiment: Confocal microscopy of peptide localisation; format: cell-based; conditions: 1 μM, 1 hour
Method: (§1) Figure 8 PS-Gp130 and PS-MYC blocking peptides efficiently internalize into tumor cells to exert their functions. (A) For 1 hour 1 μM of PS-conjugated MYC (PS-MYC) and Gp130 (PS-Gp130) were incubated with cancer cells. PS-scramble MYC (PS-SC-MYC) was used as a control for PS-MYC. The peptide uptake was visualized by confocal microscopy and quantified by flow cytometry. Data are representative of 3 independent experiments (n = 3). (B) Upper panel: The binding of PS-Gp130 and STAT3 was examined by immunoprecipitation and Western blotting. PO-Gp130 was used as a control. For 4 hours prior to harvest, 1 μM of peptide was incubated with cells. Lower panel: PS-Gp130 inhibits IL-6–induced phosphorylation of STAT3 and p44/42 but not EGF-mediated signaling. The cells were preincubated with PS-Gp130 for 2 hours and then stimulated with 20 ng/mL of IL-6 or 30 ng/mL of EGF for 30 minutes before harvest and Western blotting. (C) Gene expression of STAT3 targets was examined by quantitative PCR after the treatment with 1 μM of PS-Gp130 with or without IL-6 stimulation as described above. Data shown are 3 independent experiments (n = 3); SD is shown. Unpaired Student’s t test; ***P < 0.005; **P < 0.01; *P < 0.05. (D) A total of 1 μM of PS-SC-MYC or PS-MYC was incubated with cells for 48 hours before the gene expression of MYC targets was examined by quantitative PCR. […]

[3] = test system: STAT3 signaling; experiment: Gene expression of STAT3 targets by quantitative PCR; format: cell-based; conditions: 1 μM, with or without IL-6 stimulation, n = 3
Method: as §1, with “Lower panel: PS-Gp130 inhibits IL-6–induced phosphorylation of STAT3 and p44/42 but not EGF-mediated signaling. The cells were preincubated with PS-Gp130 for 2 hours and then stimulated with 20 ng/mL of IL-6 or 30 ng/mL of EGF for 30 minutes before harvest and Western blotting.” left out, “Data shown are 3 independent experiments (n = 3); SD is shown. Unpaired Student’s t test; ***P < 0.005; **P < 0.01; *P < 0.05.” left out
Total RNA was extracted from cultured or tumor tissues using RNeasy kit (QIAGEN), according to manufacturer’s instruction. After cDNA synthesis using iScript cDNA Synthesis kit (Bio-Rad), samples were analyzed using pairs of primers specific for CASP9, CASP3, CASP8, BIRC5, BCL2L1, MYC, TP53, VEGF, IL1B, SERPIN3, FGA, CDK4, CCND2, CDKN2A, CDKN2B, GADD45A, mCD274, mMmp9, and mBirc5, as indicated. […]

Substance | cell proliferation [1] | intracellular localisation / retention of peptide [2] | STAT3 signaling (gene expression of STAT3 targets) [3]
PDIPKEEAFGK685(Ac)YCRPESQEHPC-linker-T*C*C*A*T*G*A*G*C*T*T*C*C*T*G*A*T*G*C*T [PS-acet.-STAT3 peptide] | decrease | – | –
PS-Gp130: PS-conjugated Gp130 peptide (amino acids 901–910) with phospho-Tyr905 (MPKS[pY]LPQTV; also: phosphorothioate oligonucleotide conjugate; UniProt P40189 901-910, looked up, fragment) | – | detected in the cytoplasm or associated with the membrane | significantly blocked
